In US11542492B2 (Celgene CAR LLC, priority 2009, dated 2023):
pKi: −log10 of the molar value.

Biological target: T1, recombinant human cIAP-1 (Homo sapiens, UniProt Q13490)
T1 construct: purchased R&D Systems 818-IA
Experiment: Fluorescence polarization competition binding assay, cIAP-1
Details: c-IAP-1, 3 h
Method: Homogeneous, Fluorescence Polarization, Competition Binding Assay Protocol for Affinity Assessment of Compound Binding to XIAP, cIAP-1 and ML-IAPβ BIR3 Domains
1× stocks of recombinant human XIAP; BIR3 domain (895-XB), recombinant human cIAP-1 (818-IA) or recombinant human ML-IAPβ (818-IA) from R&D Systems and Fluorescence Polarization (FP) assay tracer (Atto-647 tagged IAP inhibitor probe compound) were prepared in assay buffer consisting of 25 mM Tris-HCL, pH 7.5 (Sigma), 10 mM […] (Sigma), 1 mM DTT (Fluka) and 0.005% TritonX-100 (Pierce). While IAP protein and tracer equilibrated at ambient temp in the dark (30-60 min), 100× stocks of test compound were prepared in 50% DMSO:H2O, serially diluted and spotted (0.5 µL/well) in duplicate wells of a 384-well, flat bottom, polypropylene, black assay plate (Greiner #781209). […] Competition binding between test compounds and assay tracer was initiated by the addition of 50 µL/well of pre-equilibrated IAP protein and assay tracer. Displacement of the assay tracer was measured in a Synergy plate reader from BioTek (Winooski, Vt.) at λex620/λem680 through a 660 nm half-sized dicroich mirror and S/P polarizing filters every 30 min for 3 hr. (See Huang, X., Journal of Biomolecular Screening 8, 2003). The resulting compound dose response data were fit to a one-site binding Ki model in GraphPad Prism from GraphPad Software (San Diego, Calif.).

T1 sequence (Q13490 whole entry): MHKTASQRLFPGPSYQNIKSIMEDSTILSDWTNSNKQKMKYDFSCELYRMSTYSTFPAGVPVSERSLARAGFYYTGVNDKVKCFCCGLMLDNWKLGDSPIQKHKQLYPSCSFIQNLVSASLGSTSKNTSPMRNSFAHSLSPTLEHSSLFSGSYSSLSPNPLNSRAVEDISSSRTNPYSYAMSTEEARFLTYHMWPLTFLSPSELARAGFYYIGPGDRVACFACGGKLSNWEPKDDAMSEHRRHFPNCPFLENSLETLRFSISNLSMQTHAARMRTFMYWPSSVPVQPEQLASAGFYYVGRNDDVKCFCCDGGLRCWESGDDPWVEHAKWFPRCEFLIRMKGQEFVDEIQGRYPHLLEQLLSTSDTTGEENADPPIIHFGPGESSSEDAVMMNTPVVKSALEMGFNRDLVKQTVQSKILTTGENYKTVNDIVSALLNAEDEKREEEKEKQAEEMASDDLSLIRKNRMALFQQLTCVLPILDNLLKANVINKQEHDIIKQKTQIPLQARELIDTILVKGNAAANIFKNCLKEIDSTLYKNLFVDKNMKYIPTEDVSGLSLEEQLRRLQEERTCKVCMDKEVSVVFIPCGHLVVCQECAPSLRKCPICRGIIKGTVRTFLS

| SMILES | pKi |
| --- | --- |
| CN[C@@H](C)C(=O)N[C@H]1CCCC[C@H]2CC[C@@H](C(=O)NCc3cccc(C(=O)N4CCC5CC4C(=O)O5)c3)N2C1=O (some centres unmarked) [VII-48] | 6.00 to 7.00 |
| CN[C@@H](C)C(=O)N[C@H]1CCCC[C@H]2CC[C@@H](C(=O)NCc3cccc(NC(=O)CC(=O)C(F)(F)F)c3)N2C1=O [VII-9] | 6.00 to 7.00 |
| CN[C@@H](C)C(=O)N[C@H]1CCCC[C@H]2CC[C@@H](C(=O)NCc3cccc(NC(=O)C45CC[C@](C)(C(=O)O4)C5(C)C)c3)N2C1=O [VII-26] | 6.00 to 7.00 |
| CN[C@@H](C)C(=O)N[C@H]1CCCC[C@H]2CC[C@@H](C(=O)NCc3cccc(C(=O)N4CCOC(=O)C4)c3)N2C1=O [VII-31] | 6.00 to 7.00 |
| CN[C@@H](C)C(=O)N[C@H]1CCCC[C@H]2CC[C@@H](C(=O)NCc3cccc(NC(=O)C45CC[C@@](C)(C(=O)O4)C5(C)C)c3)N2C1=O [VII-24] | 6.00 to 7.00 |
| CN[C@@H](C)C(=O)N[C@H]1CCCC[C@H]2CC[C@@H](C(=O)NCc3cccc(NC(=O)/C=C/CN(C)C)c3)N2C1=O [VII-10] | 6.00 to 7.00 |
| CN[C@@H](C)C(=O)N[C@H]1CCCC[C@H]2CC[C@@H](C(=O)NCc3cccc(OC4CCOC4=O)c3)N2C1=O (some centres unmarked) [VII-17] | 6.00 to 7.00 |
| CN[C@@H](C)C(=O)N[C@H]1CCCC[C@H]2CC[C@@H](C(=O)NCc3cccc(C(=O)C=C(C)C)c3)N2C1=O [VII-19] | 7.00 to 8.00 |
| CN[C@@H](C)C(=O)N[C@H]1CCCC[C@H]2CC[C@@H](C(=O)NCc3cccc(C(=O)N4CCC5C[C@H]4C(=O)O5)c3)N2C1=O [VII-47] | 5.00 to 6.00 |
| CN[C@@H](C)C(=O)N[C@H]1CCCC[C@H]2CC[C@@H](C(=O)NCc3cccc(C(=O)N4C[C@H]5C[C@@H]4C(=O)O5)c3)N2C1=O [VII-25] | 6.00 to 7.00 |
| CN[C@@H](C)C(=O)N[C@H]1CCCC[C@H]2CC[C@@H](C(=O)NCc3cccc(C(C(C)=O)C(C)=O)c3)N2C1=O [VII-8] | 6.00 to 7.00 |
| CN[C@@H](C)C(=O)N[C@H]1CCCC[C@H]2CC[C@@H](C(=O)NCc3cccc(Nc4c(OC(C)C)c(=O)c4=O)c3)N2C1=O [VII-5] | 6.00 to 7.00 |
| CN[C@@H](C)C(=O)N[C@H]1CCCC[C@H]2CC[C@@H](C(=O)NCc3cccc(C(=O)N4C[C@@H]5C[C@H]4C(=O)O5)c3)N2C1=O [VII-20, (3S,6S,10aS)-6-((S)-2-(methylamino)propanamido)-5-oxo-N-(3-((1S,4S)-3-oxo-2-oxa-5-azabicyclo[2.2.1]heptane-5-carbonyl)benzyl)decahydropyrrolo[1,2-a]azocine-3-carboxamide] | 6.00 to 7.00 |
| CN[C@@H](C)C(=O)N[C@H]1CCCC[C@H]2CC[C@@H](C(=O)NCc3cccc(C(=O)OC4C(=O)OCC4(C)C)c3)N2C1=O (some centres unmarked) [VII-14] | 5.00 to 6.00 |
| CC(=O)C(C(C)=O)c1cccc(CNC(=O)[C@@H]2CC[C@@H]3CCCC[C@H](NC(=O)[C@H](C)N(C)C(=O)OC(C)(C)C)C(=O)N32)c1 [VII-7, tert-butyl(S)-1-((3S,6S,10aS)-3-(3-(2,4-dioxopentan-3-yl)benzylcarbamoyl)-5-oxodecahydropyrrolo[1,2-a]azocin-6-ylamino)-1-oxopropan-2-yl(methyl)carbamate] | < 5.00 |
| C=CC(=O)NCc1cccc(CNC(=O)[C@@H]2CC[C@@H]3CCCC[C@H](NC(=O)[C@H](C)NC)C(=O)N32)c1 [VII-18] | 6.00 to 7.00 |

Continued, values first:

| pKi | SMILES |
| --- | --- |
| 6.00 to 7.00 | CN[C@@H](C)C(=O)N[C@H]1CCCC[C@H]2CC[C@@H](C(=O)NCc3cccc(NC(=O)C4(C(C)=O)CC4)c3)N2C1=O [VII-34] |
| 6.00 to 7.00 | C=C(C)C(=O)Nc1cccc(CNC(=O)[C@@H]2CC[C@@H]3CCCC[C@H](NC(=O)[C@H](C)NC)C(=O)N32)c1 [VII-11] |
| 6.00 to 7.00 | CN[C@@H](C)C(=O)N[C@H]1CCCC[C@H]2CC[C@@H](C(=O)NCc3cccc(NC(=O)[C@@H]4CCC(=O)O4)c3)N2C1=O [VII-3] |
| 7.00 to 8.00 | CN[C@@H](C)C(=O)N[C@H]1CCCC[C@H]2CC[C@@H](C(=O)NCc3cccc(NC(=O)C=C(C)C)c3)N2C1=O [VII-12] |
| 5.00 to 6.00 | CN[C@@H](C)C(=O)N[C@H]1CCCC[C@H]2CC[C@@H](C(=O)NCc3cccc(NC(=O)C4COC(=O)C4)c3)N2C1=O (some centres unmarked) [VII-45] |
| 6.00 to 7.00 | CN[C@@H](C)C(=O)N[C@H]1CCCC[C@H]2CC[C@@H](C(=O)NCc3cccc(NC(=O)C4CCCC(=O)O4)c3)N2C1=O (some centres unmarked) [VII-46] |
| 6.00 to 7.00 | CN[C@@H](C)C(=O)N[C@H]1CCCC[C@H]2CC[C@@H](C(=O)NCc3cccc(C(=O)N[C@H]4CCOC4=O)c3)N2C1=O [VII-13, (3S,6S,10aS)-6-((S)-2-(methylamino)propanamido)-5-oxo-N-(3-((S)-2-oxotetrahydrofuran-3-ylcarbamoyl)benzyl)decahydropyrrolo[1,2-a]azocine-3-carboxamide] |
| 6.00 to 7.00 | CN[C@@H](C)C(=O)N[C@H]1CCCC[C@H]2CC[C@@H](C(=O)NCc3cccc(C(=O)OC4CCOC4=O)c3)N2C1=O (some centres unmarked) [VII-15] |
| 6.00 to 7.00 | CN[C@@H](C)C(=O)N[C@H]1CCCC[C@H]2CC[C@@H](C(=O)NCc3cccc(C(=O)NC[C@H]4CCC(=O)O4)c3)N2C1=O [VII-41] |
| 6.00 to 7.00 | CN[C@@H](C)C(=O)N[C@H]1CCCC[C@H]2CC[C@@H](C(=O)NCc3cccc(C(=O)NC[C@@H]4CCC(=O)O4)c3)N2C1=O [VII-42] |
| 7.00 to 8.00 | CN[C@@H](C)C(=O)N[C@H]1CCCC[C@H]2CC[C@@H](C(=O)NCc3cccc(NC(=O)CC(C)=O)c3)N2C1=O [VII-6] |
| 6.00 to 7.00 | CN[C@@H](C)C(=O)N[C@H]1CCCC[C@H]2CC[C@@H](C(=O)NCc3cccc(NC(=O)[C@H]4CCC(=O)N4)c3)N2C1=O [VII-39] |
| 6.00 to 7.00 | CN[C@@H](C)C(=O)N[C@H]1CCCC[C@H]2CC[C@@H](C(=O)NCc3cccc(NC(=O)[C@@H]4CC(=O)N4)c3)N2C1=O [VII-4] |
| 6.00 to 7.00 | CN[C@@H](C)C(=O)N[C@H]1CCCC[C@H]2CC[C@@H](C(=O)NCc3cccc(NC(=O)C4CCOC4=O)c3)N2C1=O (some centres unmarked) [VII-44] |
| 6.00 to 7.00 | CN[C@@H](C)C(=O)N[C@H]1CCCC[C@H]2CC[C@@H](C(=O)NCc3cccc(CNC(=O)[C@@H]4CCC(=O)O4)c3)N2C1=O [VII-32] |
| 5.00 to 6.00 | CN[C@@H](C)C(=O)N[C@H]1CCCC[C@H]2CC[C@@H](C(=O)NCc3cccc(NC(=O)[C@@H]4CCC(=O)N4)c3)N2C1=O [VII-38] |
| 5.00 to 6.00 | CN[C@@H](C)C(=O)N[C@H]1CCCC[C@H]2CC[C@@H](C(=O)NCc3cccc(CNC(=O)[C@H]4CCC(=O)O4)c3)N2C1=O [VII-33] |
| 6.00 to 7.00 | CN[C@@H](C)C(=O)N[C@H]1CCCC[C@H]2CC[C@@H](C(=O)NCc3cccc(C(=O)N[C@@H]4COC(=O)C4)c3)N2C1=O [VII-22] |
| 6.00 to 7.00 | CN[C@@H](C)C(=O)N[C@H]1CCCC[C@H]2CC[C@@H](C(=O)NCc3cccc(C(=O)N[C@@H]4CCOC4=O)c3)N2C1=O [VII-27] |
